The text below walks through data of US20130296311A1, “INHIBITORS OF HCV NS5A” (PRESIDIO PHARMACEUTICALS, INC., priority 2010, published 2013).

Like-named read-outs stand apart in the source and are kept apart here.

The subject of this assay is HCV 1b_Huh-Luc/Neo-ET cell line persistently expressing a bicistronic genotype 1b replicon in Huh 7 cells. Description: HCV replicon assay (luciferase readout, 72 h). The class given is cell-based, HCV genotype 1b. Particulars: Hepatitis C virus. The method, boiled down:
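EC50 values come from a four-parameter fit of luciferase signal as % of untreated control, repeated across several determinations. The signal is from the HCV 1b_Huh-Luc/Neo-ET replicon line, dosed in triplicate one day post-plating and incubated 72 h before Bright-Glo readout.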

The mark [1] stands for this setting: Huh-7, 72 h, read-out: Inhibition of HCV genotype 1b.
Setting [2] is: Huh-7, read-out: Inhibition of HCV genotype 1b.

On to `COC(=O)N[C@H](Cc1ccccc1)C(=O)N1CCC[C@H]1c1ncc(-c2ccc(C#Cc3ccc(-c4cnc([C@@H]5CCCN5C(=O)[C@H](NC(=O)OC)c5ccccc5)[nH]4)cc3)cc2)[nH]1` [Compound 180], for which the EC50 under setting [1] was less than 1 nM.

As for `COC(=O)N[C@@H](C(=O)N1CCC[C@H]1c1ncc(-c2ccc(C#Cc3ccc(-c4cnc([C@@H]5CCCN5C(=O)[C@H]5CCCN5C)[nH]4)cc3)cc2)[nH]1)c1ccccc1` [Compound 187], under setting [1], the EC50 is less than 1 nM.

Consider `COC(=O)N[C@@H](C(=O)N1CCC[C@H]1c1ncc(-c2ccc(C#Cc3ccc(-c4cnc([C@@H]5CCCN5C(=O)[C@H](NC(=O)N5CC[C@@H](O)C5)c5ccccc5)[nH]4)cc3)cc2)[nH]1)c1ccccc1` [Compound 268], for which the EC50 under setting [1] is less than 1 nM.

On to `CC(C)[C@@H](NC(=O)N1CCC(O)CC1)C(=O)N1CCC[C@H]1c1ncc(-c2ccc(C#Cc3ccc(-c4cnc([C@@H]5CCCN5C(=O)[C@H](NC(=O)N5CCC(O)CC5)C(C)C)[nH]4)cc3)cc2)[nH]1` [Compound 959], for which the EC50 under setting [1] is less than 1 nM.

`COC[C@H](NC(=O)OC)C(=O)N1CCC[C@H]1c1ncc(-c2ccc(C#Cc3ccc4nc([C@@H]5CCCN5C(=O)[C@@H](NC(=O)OC)C(C)C)[nH]c4c3)cc2)[nH]1` [Compound 1236]: the EC50 under setting [2] was less than 1 nM.

In the case of `O=C(N[C@@H](C(=O)N1CCC[C@H]1c1ncc(C#Cc2ccc(-c3ccc(-c4cnc([C@@H]5CCCN5C(=O)[C@H](NC(=O)C5CC5)c5ccccc5)[nH]4)cc3)cc2)[nH]1)c1ccccc1)C1CC1` [Compound 760], the EC50 under setting [1] is less than 1 nM.

With `COC(=O)N[C@H](C(=O)N1CCC[C@H]1c1ncc(-c2ccc(C#Cc3ccc(-c4cnc([C@@H]5CCCN5C(=O)[C@@H](NC(=O)OC)[C@@H](C)O)[nH]4)cc3)cc2)[nH]1)[C@@H](C)O` [Compound 283], the EC50 under setting [1] was less than 1 nM.

Consider `CCN(CC)[C@@H](C(=O)N1CCC[C@H]1c1ncc(C#Cc2ccc(C#Cc3cnc([C@@H]4CCCN4C(=O)[C@H](NC(=O)OC)c4ccccc4)[nH]3)cc2)[nH]1)c1ccccc1` [Compound 315], for which the EC50 under setting [1] was less than 1 nM.

In the case of `COC(=O)N[C@H](C(=O)N1CCC[C@H]1c1ncc(-c2ccc(C#Cc3ccc(-c4cnc([C@@H]5CCCN5C(=O)[C@@H](NC(=O)OC)C(C)C)[nH]4)cc3)cc2)[nH]1)C(C)C` [Compound 266], the EC50 under setting [1] is less than 1 nM.

Consider `COC(=O)N[C@H](C(=O)N1CCC[C@H]1c1ncc(-c2ccc(C#Cc3ccc(-c4cnc([C@@H]5CCCN5C(=O)[C@@H](c5ccccc5)N5CCC(C)(O)CC5)[nH]4)cc3)cc2)[nH]1)C(C)C` [Compound 970], for which the EC50 under setting [1] is less than 1 nM.

In the case of `COC(=O)N[C@H](C(=O)N1CCC[C@H]1c1nc(-c2ccc3cc(C#Cc4cnc([C@@H]5CCCN5C(=O)[C@H](NC(=O)OC)c5ccccc5)[nH]4)ccc3c2)c[nH]1)C(C)C` [Compound 1077], the EC50 under setting [1] was less than 1 nM.

With `COC(=O)N[C@H](C(=O)N1CCC[C@H]1c1nc2c([nH]1)-c1ccc(C#Cc3ccc(-c4cnc([C@@H]5CCCN5C(=O)[C@H](NC(=O)OC)c5ccccc5)[nH]4)cc3F)cc1CC2)C(C)C` [Compound 1098], the EC50 under setting [1] was less than 1 nM.

As for `CN1CCN(C(=O)N[C@@H](C(=O)N2CCC[C@H]2c2ncc(-c3ccc(C#Cc4ccc(-c5cnc([C@@H]6CCCN6C(=O)[C@H](NC(=O)N6CCN(C)CC6)c6ccccc6)[nH]5)cc4)cc3)[nH]2)c2ccccc2)CC1` [Compound 159], the EC50 under setting [1] is less than 1 nM.

Regarding `COC(=O)N[C@@H](C(=O)N1CCC[C@H]1c1ncc(-c2ccc3nc(C#Cc4ccc5nc([C@@H]6CCCN6C(=O)[C@H](NC(=O)OC)c6ccccc6)[nH]c5c4)ccc3c2)[nH]1)c1ccccc1` [Compound 1109], the EC50 under setting [1] is less than 1 nM.

As to `COC(=O)N[C@H](C(=O)N1CCC[C@H]1c1nc2ccc3cc(C#Cc4ccc5nc([C@@H]6CCCN6C(=O)[C@@H](NC(=O)OC)C6CCOCC6)[nH]c5c4)ccc3c2[nH]1)C(C)C` [Compound 1274], the EC50 under setting [2] was less than 1 nM.

For `COC(=O)N[C@@H](C(=O)N1CCC[C@H]1c1ncc(-c2ccc(C#Cc3ccc(-c4cnc([C@@H]5CCCN5C(=O)c5nccn5C)[nH]4)cc3)cc2)[nH]1)c1ccccc1` [Compound 176], the EC50 under setting [1] was less than 1 nM.

Take `COC(=O)N[C@@H](C(=O)N1CCC[C@H]1c1ncc(-c2ccc(C#Cc3ccc(-c4cnc([C@@H]5CCCN5C(=O)[C@H](NC(=O)N5CCC[C@@H](O)C5)c5ccccc5)[nH]4)cc3)cc2)[nH]1)c1ccccc1` [Compound 264]: the EC50 under setting [1] is less than 1 nM.

As for `CCN(CC)[C@@H](C(=O)N1CCC[C@H]1c1ncc(-c2ccc(C#Cc3ccc(-c4cnc([C@@H]5CCCN5C(=O)[C@@H](c5ccccc5)N(CC)CC)[nH]4)cc3)cc2)[nH]1)c1ccccc1` [Compound 173], the EC50 under setting [1] was less than 1 nM.

`CC(C)(C)OC(=O)N[C@@H](C(=O)N1CCC[C@H]1c1ncc(C#Cc2ccc(C#Cc3cnc([C@@H]4CCCN4C(=O)[C@H](NC(=O)OC(C)(C)C)c4ccccc4)[nH]3)cc2)[nH]1)c1ccccc1` [Compound 300]: the EC50 under setting [1] was less than 1 nM.

Turning to `COC(=O)N[C@@H](C(=O)N[C@H](c1ncc(-c2ccc(C#Cc3ccc(-c4cnc([C@@H]5CCCN5C(=O)[C@H](NC(=O)OC)c5ccccc5)[nH]4)cc3)cc2)[nH]1)C(C)C)c1ccccc1` [Compound 282], the EC50 under setting [1] was less than 1 nM.

On to `COC(=O)N[C@H](C(=O)N1CCC[C@H]1c1nc(-c2ccc3cc(C#Cc4cnc([C@@H]5CCCN5C(=O)[C@@H](NC(=O)OC)C5CCOCC5)[nH]4)ccc3c2)c[nH]1)C(C)C` [Compound 1079], for which, under setting [1], the EC50 was less than 1 nM.

Take `CC1(O)CCN(C(=O)N[C@@H](C(=O)N2CCC[C@H]2c2ncc(C#Cc3ccc(-c4ccc(-c5cnc([C@@H]6CCCN6C(=O)[C@H](NC(=O)N6CCC(C)(O)CC6)c6ccccc6)[nH]5)cc4)cc3)[nH]2)c2ccccc2)CC1` [Compound 870]: the EC50 under setting [1] was less than 1 nM.

`COC(=O)N[C@H](C(=O)N1CCC[C@H]1c1ncc(-c2ccc3cc(C#Cc4[nH]c([C@@H]5CCCN5C(=O)[C@@H](NC(=O)OC)C(C)C)nc4C(=O)O)ccc3c2)[nH]1)C(C)C` [Compound 1267]: the EC50 under setting [2] is less than 1 nM.

As for `CC[C@H](C)[C@H](NC(=O)OC)C(=O)N1CCC[C@H]1c1ncc(-c2ccc3cc(C#Cc4[nH]c([C@@H]5CCCN5C(=O)[C@@H](NC(=O)OC)[C@@H](C)CC)nc4C(F)(F)F)ccc3c2)[nH]1` [Compound 1253], the EC50 under setting [2] is less than 1 nM.

Take `COC(=O)N[C@H](C(=O)N1CCC[C@H]1c1ncc(C#Cc2ccc(-c3ccc4nc([C@@H]5CCCN5C(=O)[C@@H](NC(=O)OC)C(C)C)[nH]c4c3)cc2)[nH]1)C(C)C` [Compound 1084]: the EC50 under setting [1] was less than 1 nM.

In the case of `COC(=O)N[C@@H](C(=O)N1CCC[C@H]1c1ncc(-c2ccc(C#Cc3ccc4nc([C@@H]5CCCN5C(=O)[C@H](NC(=O)OC)C(C)C)[nH]c4c3)cc2)[nH]1)C(C)C` [Compound 861], the EC50 under setting [1] fell in the range of 10 to 999 nM.

For `COC(=O)N[C@@H](C(=O)N1CCC[C@H]1c1ncc(-c2ccc(C#Cc3ccc4nc([C@@H]5CCCN5C(=O)[C@H](NC(=O)OC)c5ccccc5)[nH]c4c3)cc2F)[nH]1)c1ccccc1` [Compound 1222], the EC50 under setting [2] is less than 1 nM.

As for `COC(=O)N[C@H](C(=O)N1CCC[C@H]1CNC(=O)c1ccc(C#Cc2ccc3nc([C@@H]4CCCN4C(=O)[C@@H](NC(=O)OC)C(C)C)[nH]c3c2)cc1)C(C)C` [Compound 1238], under setting [2], the EC50 is less than 1 nM.

`COC(=O)N[C@@H](C(=O)N1CCC[C@H]1c1ncc(-c2ccc(C#Cc3ccc(-c4cnc([C@@H]5CCCN5C(=O)[C@H](NC(=O)[C@@H]5CCCO5)c5ccccc5)[nH]4)cc3)cc2)[nH]1)c1ccccc1` [Compound 195]: the EC50 under setting [1] is less than 1 nM.

On to `COC(=O)N[C@@H](C(=O)N1CCC[C@H]1c1ncc(C#Cc2ccc(-c3ccc(-c4cnc([C@@H]5CCCN5C(=O)[C@H](NC(=O)OC(C)(C)C)c5ccccc5)[nH]4)cc3)cc2)[nH]1)c1ccccc1` [Compound 753], for which the EC50 under setting [1] was less than 1 nM.

As for `COC(=O)N[C@H](C(=O)N1CCC[C@H]1c1nc2c([nH]1)-c1ccc(C#Cc3ccc(-c4cnc([C@@H]5CCCN5C(=O)[C@@H](NC(=O)OC)C5CCOCC5)[nH]4)cc3)cc1CC2)C(C)C` [Compound 1091], the EC50 under setting [1] is less than 1 nM.

`COC(=O)N[C@@H](C(=O)N1CCC[C@H]1c1ncc(-c2ccc(C#Cc3ccc(-c4cnc([C@@H]5CCCN5C(=O)[C@H](NC(=O)N5CCC(O)CC5)c5ccccc5)[nH]4)cc3)cc2)[nH]1)c1ccccc1` [Compound 241]: the EC50 under setting [1] is less than 1 nM.

As for `COC(=O)N[C@H](C(=O)N1CCN(C(=O)OC)C[C@H]1c1ncc(-c2ccc(C#Cc3ccc(-c4cnc([C@@H]5CCCN5C(=O)[C@H](NC(=O)OC5CCOCC5)c5ccccc5)[nH]4)cc3)cc2)[nH]1)C(C)C` [Compound 1207], the EC50 under setting [2] was less than 1 nM.

On to `CCN(CC)[C@@H](C(=O)N1CCC[C@H]1c1ncc(-c2ccc(C#Cc3ccc(-c4cnc([C@@H]5CCCN5C(=O)[C@@H](NC(=O)OC)C(C)C)[nH]4)cc3)cc2)[nH]1)c1ccccc1` [Compound 985], for which the EC50 under setting [1] was less than 1 nM.

Regarding `CC(C)(NC(=O)C1CC1)C(=O)N1CCC[C@H]1c1ncc(C#Cc2ccc(-c3cnc([C@@H]4CCCN4C(=O)C(C)(C)NC(=O)C4CC4)[nH]3)cc2)[nH]1` [Compound 108], under setting [1], the EC50 is greater than 1000 nM.

Regarding `COC(=O)N[C@H](C(=O)N[C@@H](C)c1ncc(-c2ccc(C#Cc3ccc(-c4cnc([C@@H]5CCCN5C(=O)[C@@H](c5ccccc5)N(C)C)[nH]4)cc3)cc2)[nH]1)C(C)C` [Compound 965], the EC50 under setting [1] was less than 1 nM.

Take `CC(C)[C@@H](NC(=O)OC(C)(C)C)C(=O)N1CCC[C@H]1c1ncc(C#Cc2ccc(-c3cnc([C@@H]4CCCN4C(=O)[C@H](NC(=O)OC(C)(C)C)C(C)C)[nH]3)cc2)[nH]1` [Compound 105]: under setting [1], the EC50 is 10 to 999 nM.

Turning to `COC(=O)N[C@H](C(=O)N1CCC[C@H]1c1nc2ccc(C#Cc3ccc(-c4cnc([C@@H]5CCCN5C(=O)[C@H](c5ccccc5)N(C)C)[nH]4)cc3)cc2[nH]1)C(C)C` [Compound 864], under setting [1], the EC50 is less than 1 nM.

`CC(C)[C@@H](NC(=O)N1CCCC1)C(=O)N1CCC[C@H]1c1ncc(-c2ccc(C#Cc3ccc(-c4cnc([C@@H]5CCCN5C(=O)[C@H](NC(=O)N5CCCC5)C(C)C)[nH]4)cc3)cc2)[nH]1` [Compound 293]: the EC50 under setting [1] is greater than 1000 nM.
